What was measured:
[1] = biological target: T1, mitochondrial benzodiazepine receptor (MBR) (Rattus norvegicus, UniProt P16257); test: Binding assay of mitochondrial benzodiazepine receptor (MBR), [3H]4'-chlorodiazepam (Ro5-4864), rat kidney membrane-preparation; conditions: rat kidney membranes, [3H]4'-chlorodiazepam 0.5 nM, 0° C. for 150 minutes
T1 construct: from tissue; host or cells: kidney of male Wistar rats (crude membrane preparation)
Description: The binding assay of central-type benzodiazepine receptor (CBR) and the preparation of receptor membrane-preparation were carried out according to the partially modified method of Braestrup, C. et al. [see; Br. J. Psychiatry, 133, 249-260 (1978)] with a minor modification; the binding assay of mitochondrial benzodiazepine receptor (MBR) and the preparation of receptor membrane-preparation were carried out according to the method of Schoemaker, H [see; J. Pharmacol. Exp. Ther., 225, 61-69 (1983)] with a minor modification.
CBR and MBR membrane-preparations were prepared from forebrain (CBR) and kidney (MBR) of male Wistar strain rats according to the following procedure, respectively.
To the forebrain of rat, 20 volumes of ice-cold 0.32 M sucrose solution to wet-weight of the tissue (1:20, wet-weight/vol) was added and homogenized, and then the homogenate was centrifuged at 900×g for 10 minutes. The supernatant was centrifuged at 11,500×g for 20 minutes, a buffer I for the binding assay (50 mM Tris-hydrochloric acid buffer, pH 7.5) was added to the resultant precipitate, and the mixture was homogenized, and then it was centrifuged at 30,000×g for 10 minutes. The resulting precipitate was washed 3 times according to the same operation, suspended in the buffer I (1 g of wet-weight of tissue/10 ml) and used as a CBR membrane-preparation for the binding assay. The CBR membrane-preparation was stored at −80° C. until use, and on the day of the assay, it was thawed and suspended in the buffer for use. On the other hand, kidney of rat was homogenized in 20 volumes of ice-cold buffer II for the binding assay to wet-weight of the tissue (1:20, wet-weight/vol) (50 mM sodium phosphate-potassium phosphate buffer solution containing 100 mM sodium chloride, pH 7.4), and then filtrated through 4 layers of gauze, and the filtrate was centrifuged at 40,000×g for 20 minutes. The resulting precipitate was suspended in the buffer II (1 g of wet-weight of tissue/50 ml) and used as a MBR membrane-preparation for the binding assay.
As a labeled ligand and a non-labeled ligand, [^3H]flunitrazepam (final concentration: 1 nM) and diazepam (final concentration: 20 μM) were used respectively, for the CBR binding assay, and [^3H]4′-chlorodiazepam (Ro5-4864, chemical name: 7-chloro-1,3-dihydro-1-methyl-5-(4-chloro-phenyl)-2H-1,4-[…]) (final concentration: 0.5 nM) and diazepam (final concentration: 50 μM) were used respectively, for the MBR binding assay. The binding assay of CBR was carried out by incubating at 0° C. for 30 minutes, while that of MBR was at 0° C. for 150 minutes.
The receptor binding assay was carried out in the following procedure. The test compound which the concentration was known, a tritium labeled ligand, a receptor membrane-preparation and the buffer I or II for the binding assay were added to a 96-well microplate in the total volume was 0.2 ml, and when the receptor membrane-preparation was added, the reaction started. After the incubation, the labeled ligand binding to the receptor was filtrated through a filter plate (UNI FILTER-96GF/B, PerkinElmer, the U.S.) using a cell harvester (PerkinElmer, the U.S.) to stop the reaction. The filter was immediately washed 6 times with 0.3 ml of the ice-cold buffer [50 mM Tris-hydrochloric acid buffer (pH 7.7)]. After 30 μl of liquid scintillation cocktail (MICROSCINTI 20, PerkinElmer, the U.S.) was added to each well on the dried filter plate, the radioactivity was measured with a TopCount. The specific binding amount was obtained by subtracting the non-specific binding amount which was simultaneously measured in the presence of non-labeled ligand from the total binding amount. The concentration that the test compound could decrease the specific binding amount of the labeled ligand to 50% of the amount (IC50 value) was analyzed using nonlinear least-squares method.

| Structure (SMILES) | melting point | IC50 [1] [nM] |
| --- | --- | --- |
| Cn1nc(N2c3ccccc3C[C@H]2C(=O)N2CCCCCCC2)ccc1=O (hydrate or solvate) [Example 119, (S)-1-(1-methyl-6-oxo-1,6-dihydropyridazin-3-yl)-2-[(1-perhydroazocinyl)carbonyl]indoline] | 179 to 182 °C | – |
| C[C@H]1CCCN(C(=O)[C@@H]2Cc3ccccc3N2c2ccc(=O)n(CC(=O)c3ccccc3)n2)C1 (hydrate or solvate) [Example 124] | 255 °C (dec.) | – |
| O=C(C1Cc2ccccc2N1c1ncccn1)N1CCCC(F)(F)C1 (racemic) [Example 48] | 172 to 174 °C | 77 |
| O=C(C1Cc2ccccc2N1c1ncccn1)N1CCCC(C(F)(F)F)C1 (racemic) [Example 49] | 159 to 163 °C | 3.98 |
| O=C(C1Cc2ccccc2N1c1ncccn1)N1CCCC(CO)C1 (racemic) [Example 50] | 124 to 128 °C | 92.6 |
| O=C(C1Cc2ccccc2N1c1ncccn1)N1CCCC(c2ccccc2)C1 (racemic) [Example 51] | 145 to 151 °C | 21.2 |
| CC1CC(C)CN(C(=O)C2Cc3ccccc3N2c2ccncn2)C1 (racemic) [Example 58] | 107 to 109 °C | 4.31 |
| CC1CCCN(C(=O)C2Cc3cc(F)ccc3N2c2cccnn2)C1 (racemic) [Example 84] | 155 to 157 °C | 5.58 |
| COc1ccc2c(c1)CC(C(=O)N1CCCC(C)C1)N2c1ccc(=O)n(C)n1 (racemic) [Example 134] | 248 to 250 °C | 33.8 |
| C[C@@H]1C[C@H](C)CN(C(=O)C2Cc3ccccc3N2c2nc3ccccc3o2)C1 (relative stereo) [Example 5] | 199 to 201 °C | 2.28 |
| C[C@@H]1C[C@H](C)CN(C(=O)C2Cc3ccccc3N2c2ccc(F)cn2)C1 (relative stereo) [Example 10] | 139 to 141 °C | 1.14 |
| C[C@@H]1C[C@H](C)CN(C(=O)[C@@H]2Cc3ccccc3N2c2nccc3ccccc23)C1 [Example 13] | 173 to 175 °C | 2.08 |
| C[C@H]1CCCN(C(=O)[C@@H]2Cc3ccccc3N2c2nc3ccccc3s2)C1 [Example 14] | 165 to 166 °C | 0.823 |
| C[C@@H]1C[C@H](C)CN(C(=O)[C@@H]2Cc3ccccc3N2c2nc3ccccc3s2)C1 [Example 15] | 170 to 173 °C | 1.46 |
| C[C@@H]1CCCN(C(=O)[C@@H]2Cc3ccccc3N2c2nc3ccccc3o2)C1 [Example 16] | 220 to 222 °C | 1.17 |
| C[C@H]1CCCN(C(=O)[C@@H]2Cc3ccccc3N2c2nc3ccccc3o2)C1 [Example 17, (S)-1-(1,3-benzoxazol-2-yl)-2-[[(S)-3-methylpiperidin-1-yl]carbonyl]indoline] | 191 to 193 °C | 0.638 |
| C[C@@H]1C[C@H](C)CN(C(=O)[C@@H]2Cc3ccccc3N2c2cncc(Cl)n2)C1 [Example 21] | 174 to 175 °C | 1.23 |
| C[C@@H]1CCCN(C(=O)[C@@H]2Cc3ccccc3N2c2ncccn2)C1 [Example 22] | 151 to 153 °C | 19.3 |
| C[C@H]1CCCN(C(=O)[C@@H]2Cc3ccccc3N2c2ccc(Cl)nn2)C1 [Example 35] | 183 to 186 °C | 1.19 |
| Cc1ccc(N2c3ccccc3C[C@H]2C(=O)N2CCC[C@H](C)C2)nn1 [Example 37] | 192 to 194 °C | 3.23 |
| COc1ccc(N2c3ccccc3C[C@H]2C(=O)N2C[C@H](C)C[C@H](C)C2)nn1 [Example 39] | 173 to 175 °C | 1.71 |
| CC1CCCN(C(=O)[C@@H]2Cc3ccccc3N2c2cnccn2)C1 (stereo partly drawn) [Example 59] | 177 to 179 °C | 12.9 |
| C[C@H]1CCCN(C(=O)[C@@H]2Cc3ccccc3N2c2cnccn2)C1 [Example 60, (S)-2-[(S)-3-methylpiperidin-1-yl]carbonyl-1-(2-pyrazinyl)indoline] | 174 to 175 °C | 1.54 |
| CCCCn1nc(N2c3ccccc3C[C@H]2C(=O)N2CCC[C@H](C)C2)ccc1=O [Example 74] | 186 to 188 °C | – |

The remaining lines, values ahead:

| melting point | IC50 [1] [nM] | Structure (SMILES) |
| --- | --- | --- |
| 221 to 223 °C | – | C[C@H]1CCCN(C(=O)[C@@H]2Cc3ccccc3N2c2ccc(=O)n(CC3CCC3)n2)C1 (hydrate or solvate) [Example 125] |
| 160 to 162 °C | 3.69 | COc1cccc2c1CC(C(=O)N1CCCC(C)C1)N2c1cccnn1 (racemic) [Example 85] |
| 217 to 219 °C | 10.1 | CC1CCCN(C(=O)C2Cc3cc(F)ccc3N2c2ccc(=O)n(C)n2)C1 (racemic) [Example 132] |
| 181 to 182 °C | 3.95 | COc1cccc2c1CC(C(=O)N1CCCC(C)C1)N2c1ccc(=O)n(C)n1 (racemic) [Example 133] |
| 182 to 184 °C | 13.5 | COc1ccc2c(c1)N(c1ccc(=O)n(C)n1)C(C(=O)N1CCCC(C)C1)C2 (racemic) [Example 135] |
| 147 to 149 °C | 2.05 | CCc1cnc(N2c3ccccc3CC2C(=O)N2C[C@H](C)C[C@H](C)C2)nc1 (relative stereo) [Example 8] |
| 137 to 139 °C | 1.84 | Cc1ccc(N2c3ccccc3CC2C(=O)N2C[C@H](C)C[C@H](C)C2)nc1 (relative stereo) [Example 11] |
| 156 to 158 °C | 2.92 | CC1CCCN(C(=O)C2Cc3ccccc3N2c2ncccn2)C1 (stereo not drawn) [Example 6] |
| 149 to 151 °C | 123 | O=C(C1Cc2ccccc2N1c1ncccn1)N1CCCCC1 (stereo not drawn) [Example 7] |
| 134 to 136 °C | 1.37 | C[C@H]1CCCN(C(=O)[C@@H]2Cc3ccccc3N2c2nccc3ccccc23)C1 [Example 12] |
| 165 to 167 °C | 1.47 | C[C@@H]1C[C@H](C)CN(C(=O)[C@@H]2Cc3ccccc3N2c2nc3ccccc3o2)C1 [Example 18] |
| 237 to 239 °C | 6.73 | CC1CC(C)CN(C(=O)[C@@H]2Cc3ccccc3N2c2ncccn2)C1 (stereo partly drawn) [Example 25] |
| 160 to 161 °C | 0.851 | C[C@H]1CCCN(C(=O)[C@@H]2Cc3ccccc3N2c2cnc3ccccc3n2)C1 [Example 26] |
| 156 to 157 °C | 1.66 | C[C@@H]1C[C@H](C)CN(C(=O)[C@@H]2Cc3ccccc3N2c2cnc3ccccc3n2)C1 [Example 27] |
| 176 to 178 °C | 5.72 | C[C@H]1CCCN(C(=O)[C@@H]2Cc3ccccc3N2c2nsc3ccccc23)C1 [Example 28] |
| 208 to 210 °C | 1.29 | C[C@@H]1C[C@H](C)CN(C(=O)[C@@H]2Cc3ccccc3N2c2ccc([N+](=O)[O-])cn2)C1 [Example 30] |
| 114 to 115 °C | 0.727 | C[C@H]1CCCN(C(=O)[C@@H]2Cc3ccccc3N2c2cccnc2)C1 [Example 32] |
| 182 to 184 °C | 1.28 | C[C@@H]1C[C@H](C)CN(C(=O)[C@@H]2Cc3ccccc3N2c2ccc(Cl)nn2)C1 [Example 36] |
| 158 to 159 °C | 1.88 | Cc1ccc(N2c3ccccc3C[C@H]2C(=O)N2C[C@H](C)C[C@H](C)C2)nn1 [Example 38] |
| 159 to 160 °C | 14.3 | C[C@@H]1C[C@H](C)CN(C(=O)[C@H]2Cc3ccccc3N2c2ncccn2)C1 [Example 42] |

— US20080221114A1, “2-(Cyclic Aminocarbonyl) Indoline Derivative and Medicinal Composition Containing the Same” (priority 2005, published 2008)
